The results in this text go back to ChEMBL document CHEMBL5291721, “A preclinical secondary pharmacology resource illuminates target-adverse drug reaction associations of marketed drugs” (Nat Commun, 2023).

Test [1] has as its target T1, Alpha-2C adrenergic receptor (Homo sapiens, UniProt P18825).
T1 sequence (P18825 whole entry): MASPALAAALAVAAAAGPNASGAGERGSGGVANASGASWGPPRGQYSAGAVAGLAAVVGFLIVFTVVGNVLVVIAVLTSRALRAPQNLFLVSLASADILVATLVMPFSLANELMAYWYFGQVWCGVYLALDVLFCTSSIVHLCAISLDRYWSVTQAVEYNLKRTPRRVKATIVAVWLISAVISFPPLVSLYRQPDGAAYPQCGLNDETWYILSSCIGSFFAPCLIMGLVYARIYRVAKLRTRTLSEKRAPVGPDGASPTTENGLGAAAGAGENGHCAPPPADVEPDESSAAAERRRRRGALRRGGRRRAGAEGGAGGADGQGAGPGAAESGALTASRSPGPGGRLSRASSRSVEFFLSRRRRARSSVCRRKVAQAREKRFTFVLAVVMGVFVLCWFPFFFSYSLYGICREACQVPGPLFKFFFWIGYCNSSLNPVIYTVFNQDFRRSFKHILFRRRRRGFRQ
The test is classed as functional.

Test [2] addresses T2, Type-1 angiotensin II receptor (Homo sapiens, UniProt P30556).
T2 sequence (P30556 whole entry): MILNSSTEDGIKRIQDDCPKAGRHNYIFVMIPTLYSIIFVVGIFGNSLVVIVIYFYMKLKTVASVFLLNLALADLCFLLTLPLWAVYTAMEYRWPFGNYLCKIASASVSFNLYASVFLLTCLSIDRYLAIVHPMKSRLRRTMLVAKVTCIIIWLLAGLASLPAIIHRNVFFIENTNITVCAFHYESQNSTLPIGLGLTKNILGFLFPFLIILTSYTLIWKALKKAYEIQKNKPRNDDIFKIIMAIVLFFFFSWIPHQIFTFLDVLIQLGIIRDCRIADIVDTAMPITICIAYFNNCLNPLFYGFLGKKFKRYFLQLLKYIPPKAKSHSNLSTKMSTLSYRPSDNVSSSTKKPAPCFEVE

The target in test [3] is T3, 5-hydroxytryptamine receptor 2C (Homo sapiens, UniProt P28335).
T3 sequence (P28335 whole entry): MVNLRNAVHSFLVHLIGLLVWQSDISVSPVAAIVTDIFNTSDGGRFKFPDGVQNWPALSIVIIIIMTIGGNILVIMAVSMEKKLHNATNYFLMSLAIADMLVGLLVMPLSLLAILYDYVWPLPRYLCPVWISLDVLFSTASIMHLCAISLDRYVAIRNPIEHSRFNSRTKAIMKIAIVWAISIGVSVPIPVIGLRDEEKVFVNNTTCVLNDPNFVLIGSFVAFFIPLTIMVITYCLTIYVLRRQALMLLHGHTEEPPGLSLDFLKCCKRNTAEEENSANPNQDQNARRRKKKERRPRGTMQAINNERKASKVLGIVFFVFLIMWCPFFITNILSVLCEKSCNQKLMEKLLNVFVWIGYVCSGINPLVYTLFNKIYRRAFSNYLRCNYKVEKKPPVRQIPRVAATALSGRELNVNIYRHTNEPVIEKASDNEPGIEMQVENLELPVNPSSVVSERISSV

The next test deals with Melanocortin receptor 4 (Homo sapiens, UniProt P32245).
Melanocortin receptor 4, sequence (P32245 whole entry): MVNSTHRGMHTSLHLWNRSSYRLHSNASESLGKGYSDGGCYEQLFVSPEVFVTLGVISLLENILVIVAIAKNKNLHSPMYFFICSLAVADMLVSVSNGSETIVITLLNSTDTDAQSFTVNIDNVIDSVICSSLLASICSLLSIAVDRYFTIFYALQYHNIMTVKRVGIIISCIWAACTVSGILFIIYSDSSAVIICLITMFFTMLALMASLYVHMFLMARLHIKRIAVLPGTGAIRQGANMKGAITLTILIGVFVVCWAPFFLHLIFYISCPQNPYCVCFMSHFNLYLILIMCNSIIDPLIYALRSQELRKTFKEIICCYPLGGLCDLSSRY
Test [4] concerns the target T4, Neuropeptide Y receptor type 1 (Homo sapiens, UniProt P25929).
T4 sequence (P25929 whole entry): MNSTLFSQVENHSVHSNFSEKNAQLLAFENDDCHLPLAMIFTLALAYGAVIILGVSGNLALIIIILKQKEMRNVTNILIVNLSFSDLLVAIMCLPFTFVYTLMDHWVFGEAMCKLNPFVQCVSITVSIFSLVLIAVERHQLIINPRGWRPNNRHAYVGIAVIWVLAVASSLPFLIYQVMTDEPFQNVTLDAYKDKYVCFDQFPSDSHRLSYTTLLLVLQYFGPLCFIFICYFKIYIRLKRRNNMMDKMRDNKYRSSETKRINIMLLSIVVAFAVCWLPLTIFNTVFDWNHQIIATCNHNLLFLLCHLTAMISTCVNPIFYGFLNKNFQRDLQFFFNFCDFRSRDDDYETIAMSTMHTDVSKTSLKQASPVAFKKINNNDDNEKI
To be noted: read-out: AC50.

Test [5] addresses Kappa-type opioid receptor (Homo sapiens, UniProt P41145).
A further test concerns the target T5, Thromboxane A2 receptor (Homo sapiens, UniProt P21731).
T5 sequence (P21731 whole entry): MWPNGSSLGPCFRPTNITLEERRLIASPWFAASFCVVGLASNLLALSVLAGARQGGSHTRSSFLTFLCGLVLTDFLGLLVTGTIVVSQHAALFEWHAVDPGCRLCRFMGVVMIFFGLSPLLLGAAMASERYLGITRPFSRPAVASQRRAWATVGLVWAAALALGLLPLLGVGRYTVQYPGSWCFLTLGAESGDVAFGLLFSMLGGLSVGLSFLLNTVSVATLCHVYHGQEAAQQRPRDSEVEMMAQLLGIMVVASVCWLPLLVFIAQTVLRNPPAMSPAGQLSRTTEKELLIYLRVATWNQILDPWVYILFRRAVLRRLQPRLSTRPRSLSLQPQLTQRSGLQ

For test [6], the target named is T6, Amine oxidase [flavin-containing] A (Homo sapiens, UniProt P21397).
T6 sequence (P21397 whole entry): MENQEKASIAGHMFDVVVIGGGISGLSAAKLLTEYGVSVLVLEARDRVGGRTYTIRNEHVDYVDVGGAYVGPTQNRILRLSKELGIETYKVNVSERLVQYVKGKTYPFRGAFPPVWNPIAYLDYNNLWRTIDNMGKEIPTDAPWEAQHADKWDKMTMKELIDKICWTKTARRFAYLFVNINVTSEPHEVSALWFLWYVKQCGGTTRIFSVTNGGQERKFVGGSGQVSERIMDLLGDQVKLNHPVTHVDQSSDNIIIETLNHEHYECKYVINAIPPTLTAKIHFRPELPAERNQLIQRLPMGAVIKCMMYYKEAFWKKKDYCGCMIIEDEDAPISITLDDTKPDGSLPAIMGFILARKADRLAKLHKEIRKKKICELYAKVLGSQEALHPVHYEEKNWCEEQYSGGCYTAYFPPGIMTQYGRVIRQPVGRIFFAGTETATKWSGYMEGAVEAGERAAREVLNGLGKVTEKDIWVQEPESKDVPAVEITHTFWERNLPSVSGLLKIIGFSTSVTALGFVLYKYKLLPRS
The test is classed as functional.

The next test addresses D(3) dopamine receptor (Homo sapiens, UniProt P35462).
In test [7] the target is Sodium-dependent noradrenaline transporter (Homo sapiens, UniProt P23975).
Sodium-dependent noradrenaline transporter, sequence (P23975 whole entry): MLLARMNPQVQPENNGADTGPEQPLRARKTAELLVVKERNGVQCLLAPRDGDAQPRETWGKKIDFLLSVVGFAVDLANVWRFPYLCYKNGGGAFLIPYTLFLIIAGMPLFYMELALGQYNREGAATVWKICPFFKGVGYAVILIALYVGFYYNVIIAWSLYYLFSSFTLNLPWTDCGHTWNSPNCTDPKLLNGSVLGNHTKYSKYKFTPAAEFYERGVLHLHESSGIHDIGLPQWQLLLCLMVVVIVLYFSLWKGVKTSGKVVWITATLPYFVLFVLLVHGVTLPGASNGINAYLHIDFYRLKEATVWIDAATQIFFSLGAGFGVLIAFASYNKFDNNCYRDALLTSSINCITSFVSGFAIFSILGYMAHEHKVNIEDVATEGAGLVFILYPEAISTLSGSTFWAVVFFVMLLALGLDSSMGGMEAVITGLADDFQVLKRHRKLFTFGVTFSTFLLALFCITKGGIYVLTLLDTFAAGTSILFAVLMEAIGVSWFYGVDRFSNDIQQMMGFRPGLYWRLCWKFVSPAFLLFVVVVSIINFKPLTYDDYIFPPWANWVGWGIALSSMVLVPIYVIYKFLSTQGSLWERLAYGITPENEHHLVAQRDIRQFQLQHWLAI

Molecules are shown by their SMILES.
Further: assay procedure not described here.

Kappa-type opioid receptor, sequence (P41145 whole entry): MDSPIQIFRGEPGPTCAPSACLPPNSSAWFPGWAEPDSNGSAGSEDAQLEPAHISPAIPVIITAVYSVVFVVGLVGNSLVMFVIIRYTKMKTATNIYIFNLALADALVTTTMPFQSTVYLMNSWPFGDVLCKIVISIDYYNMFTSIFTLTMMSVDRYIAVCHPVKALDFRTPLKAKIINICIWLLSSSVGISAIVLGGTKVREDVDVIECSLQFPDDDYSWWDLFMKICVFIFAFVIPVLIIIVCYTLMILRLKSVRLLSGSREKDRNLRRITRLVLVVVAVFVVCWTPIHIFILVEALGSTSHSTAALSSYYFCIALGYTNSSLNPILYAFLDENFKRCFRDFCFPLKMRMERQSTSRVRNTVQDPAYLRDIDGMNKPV
D(3) dopamine receptor, sequence (P35462 whole entry): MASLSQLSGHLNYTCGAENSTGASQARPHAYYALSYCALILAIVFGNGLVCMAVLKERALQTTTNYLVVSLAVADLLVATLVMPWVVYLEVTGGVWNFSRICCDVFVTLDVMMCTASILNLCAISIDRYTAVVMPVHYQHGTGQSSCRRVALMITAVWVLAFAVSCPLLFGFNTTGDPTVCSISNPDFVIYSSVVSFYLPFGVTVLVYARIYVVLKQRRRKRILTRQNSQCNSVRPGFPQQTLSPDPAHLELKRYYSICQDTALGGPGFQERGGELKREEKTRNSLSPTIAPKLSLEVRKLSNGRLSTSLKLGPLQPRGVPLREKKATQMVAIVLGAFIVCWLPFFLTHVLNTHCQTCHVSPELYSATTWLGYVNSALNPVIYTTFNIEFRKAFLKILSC

For the compound `Cc1onc(-c2ccccc2)c1-c1ccc(S(N)(=O)=O)cc1` [VALDECOXIB], the AC50 in test [1] is > 10 µM; in test [2] it was > 30 µM; in test [3], > 30 µM; at Melanocortin receptor 4, > 30 µM; in [4] it was > 30 µM; in test [5], > 10 µM. The half-maximal activity concentration (AC50) at Thromboxane A2 receptor is > 30 µM; in [6], > 10 µM; at D(3) dopamine receptor, > 30 µM.
For `C[C@]12C=CC(=O)N[C@@H]1CC[C@@H]1[C@@H]2CC[C@]2(C)[C@@H](C(=O)Nc3cc(C(F)(F)F)ccc3C(F)(F)F)CC[C@@H]12` [DUTASTERIDE], the AC50 in test [1] was > 10 µM; in [2], > 30 µM; in test [3] it was > 30 µM; on Melanocortin receptor 4, > 10 µM; in test [4] it was > 10 µM; in test [5] it was > 10 µM. In addition, the half-maximal activity concentration (AC50) on Thromboxane A2 receptor is > 10 µM; in [7] it was > 10 µM; in test [6], > 10 µM; on D(3) dopamine receptor it was > 30 µM.
Turning to `CN(C)CCc1c[nH]c2ccc(Cn3cncn3)cc12` [RIZATRIPTAN], the AC50 in test [1] was 20.8 µM; in test [2], > 30 µM; at Melanocortin receptor 4 it was > 30 µM; in [4], > 30 µM; in [5], > 30 µM; on Thromboxane A2 receptor it was > 30 µM. Further, the AC50 in test [7] is > 10 µM; in test [6], > 30 µM; at D(3) dopamine receptor, > 30 µM.
With `Nc1ccc(S(=O)(=O)Nc2nccs2)cc1` [SULFATHIAZOLE], the AC50 is > 10 µM in test [1]; > 30 µM in test [2]; > 30 µM in test [3]; > 30 µM at Melanocortin receptor 4; > 30 µM in test [4]; > 10 µM in test [5]. Moreover, the AC50 was > 30 µM on Thromboxane A2 receptor, > 10 µM in [7], > 10 µM in test [6] and > 10 µM at D(3) dopamine receptor.
Turning to `N[C@@H](CC(=O)N1CCn2c(nnc2C(F)(F)F)C1)Cc1cc(F)c(F)cc1F` [SITAGLIPTIN], the AC50 in test [1] is > 30 µM; in test [2] it was > 30 µM; in test [3], > 30 µM; at Melanocortin receptor 4 it was > 10 µM; in [4], > 10 µM; in test [5], > 10 µM. Also, the AC50 on Thromboxane A2 receptor is > 10 µM; in test [7], > 30 µM; in test [6] it was > 30 µM; on D(3) dopamine receptor, > 30 µM.
Consider `COc1cc2nc(N3CCN(C(=O)C4CCCO4)CC3)nc(N)c2cc1OC` (centres undefined) [TERAZOSIN], for which the AC50 in [2] is > 30 µM; in test [3], > 30 µM; on Melanocortin receptor 4 it was > 30 µM; in [4] it was > 30 µM; on Thromboxane A2 receptor, > 30 µM; in test [7] it was > 10 µM. The AC50 in test [6] was > 10 µM; at D(3) dopamine receptor, > 30 µM.
Take `CO[C@H]1/C=C/O[C@@]2(C)Oc3c(C)c(O)c4c(O)c(c(/C=N/N5CCN(C)CC5)c(O)c4c3C2=O)NC(=O)/C(C)=C\C=C\[C@H](C)[C@H](O)[C@@H](C)[C@@H](O)[C@@H](C)[C@H](OC(C)=O)[C@@H]1C` [RIFAMPIN]: the concentration at half-maximal activity (AC50) in test [1] was 11 µM; in test [2] it was 19.4 µM; on Melanocortin receptor 4, > 30 µM; in test [4] it was 22.5 µM; in test [5] it was > 30 µM; at Thromboxane A2 receptor it was 17.4 µM. The AC50 in [7] is 20 µM; in [6] it was > 30 µM; at D(3) dopamine receptor, 11 µM.
As to `C[C@@H](Oc1cc(-c2cnn(C3CCNCC3)c2)cnc1N)c1c(Cl)ccc(F)c1Cl` [CRIZOTINIB], the AC50 is 1.2 µM in test [1]; 29 µM in test [2]; > 30 µM in test [3]; 19.8 µM on Melanocortin receptor 4; 8.44 µM in [4]; > 30 µM at Thromboxane A2 receptor. In addition, the AC50 in test [7] is 7.96 µM; in [6] it was 30 µM; at D(3) dopamine receptor, > 30 µM.
